According to publication PMC2943488 (Molecular bioSystems, 2010):
Each block holds one compound with its values, some of them ahead of it.

Legend:
[1] = tested on: primary human hepatocytes; test: Lactate dehydrogenase; type: cell-based
[2] = tested on: MEK–ERK signaling (p-MEK1, p-ERK1/2); test: Bio-Plex bead-based phosphoprotein assay, MEK–ERK pathway; type: cell-based, human
[3] = tested on: Akt, p70 S6K, MEK–ERK, and p38–HSP27 signaling pathways; conditions: donor #2; 100*Cmax

inhibition of MEK signaling in human hepatocytes ([2]; donor #3, selection from panel of candidate inhibitors): potently inhibit signaling
SMILES: N#CC(=C(/N)Sc1ccccc1N)/C(C#N)=C(/N)Sc1ccccc1N [U0126]
toxicity induced by inhibitor itself in human hepatocytes ([1]; donor #3): minimal toxicity

SMILES: CC[C@H]1OC(=O)[C@H](C)[C@@H](O[C@H]2C[C@@](C)(OC)[C@@H](O)[C@H](C)O2)[C@H](C)[C@@H](O[C@@H]2O[C@H](C)C[C@H](N(C)C)[C@H]2O)[C@](C)(OC)C[C@@H](C)C(=O)[C@H](C)[C@@H](O)[C@]1(C)O [clarithromycin]
MEK–ERK signaling under drug treatment ([2]; donor #1 and donor #2, 100*Cmax): sustained activation of MEK–ERK signaling

SMILES: CN(C)CCCN1c2ccccc2CCc2ccc(Cl)cc21 [clomipramine]
activation of the four 'network gauge' signaling pathways compared to control treatments [3]: without significant activation

SMILES: N[C@@H]1[C@H]2CN(c3nc4c(cc3F)c(=O)c(C(=O)O)cn4-c3ccc(F)cc3F)C[C@@H]12 [trovafloxacin]
synergistic induction of cell death by drug/cytokine co-treatment ([1]; drug ± three-cytokine/LPS mix, donors #1 and #2): synergistically induced
